Common to all, as to format: functional
For one test, the system named is Clostridioides difficile. Kind of test: Antimicrobial activity against daptomycin-resistant Clostridium difficile NAP1 incubated anaerobically at 37 degC for 48 hrs by agar dilution method. The following applies: NAP1, 48 h. For orientation: In agar dilution the substance is mixed into plates at graded concentrations.
The subject of a further test is Staphylococcus aureus. Kind of test: Antimicrobial activity against daptomycin-susceptible Staphylococcus aureus ATCC 29213 incubated anaerobically at 37 degC for 48 hrs by agar dilution method. The following applies: ATCC 29213, 48 h.
A further test concerns Enterococcus faecium. Put plainly: Antimicrobial activity against daptomycin-resistant Enterococcus faecium ATCC 6569 incubated anaerobically at 37 degC for 48 hrs by agar dilution method. Particulars: ATCC 6569, 48 h.
The subject of another test is Enterococcus faecalis. Put plainly: Antimicrobial activity against daptomycin-resistant Enterococcus faecalis ATCC 49452 incubated anaerobically at 37 degC for 48 hrs by agar dilution method. The following applies: ATCC 49452, 48 h.

≈ marks a conversion by molar mass, not a printed value.

With `CCCCCCCCCCCCCCC(=O)N[C@@H](Cc1c[nH]c2ccccc12)C(=O)N[C@@H](CC(N)=O)C(=O)N[C@@H](CC(=O)O)C(=O)N[C@@H]1C(=O)NCC(=O)N[C@@H](CCCN)C(=O)NC(CC(=O)O)C(=O)N[C@H](C)C(=O)N[C@@H](CC(=O)O)C(=O)NCC(=O)N[C@H](CO)C(=O)N[C@@H]([C@@H](C)CC(=O)O)C(=O)N[C@@H](CC(=O)c2ccccc2N)C(=O)O[C@@H]1C` (single isomer, unassigned), the MIC (in general, the least concentration at which growth counts as inhibited) against Clostridioides difficile is 16 µg/mL (≈ 9.46 µM); with Staphylococcus aureus it was 1 µg/mL (≈ 0.591 µM); with Enterococcus faecium, 4 µg/mL (≈ 2.37 µM); against Enterococcus faecalis, 4 µg/mL (≈ 2.37 µM).

Take `CCCCCCOc1ccc(-c2csc(C(=O)N[C@@H](Cc3c[nH]c4ccccc34)C(=O)N[C@@H](CC(N)=O)C(=O)N[C@@H](CC(=O)O)C(=O)N[C@@H]3C(=O)NCC(=O)N[C@@H](CCCN)C(=O)NC(CC(=O)O)C(=O)N[C@H](C)C(=O)N[C@@H](CC(=O)O)C(=O)NCC(=O)N[C@H](CO)C(=O)N[C@@H]([C@@H](C)CC(=O)O)C(=O)N[C@@H](CC(=O)c4ccccc4N)C(=O)O[C@@H]3C)c2)cc1` (single isomer, unassigned): the MIC in the test on Clostridioides difficile is 4 µg/mL (≈ 2.28 µM); in the test on Staphylococcus aureus, 0.5 µg/mL (≈ 0.285 µM); against Enterococcus faecium it was 2 µg/mL (≈ 1.14 µM); against Enterococcus faecalis it was 8 µg/mL (≈ 4.56 µM).

With `CCCCCCCCCCCCCC(=O)N[C@@H](Cc1c[nH]c2ccccc12)C(=O)N[C@@H](CC(N)=O)C(=O)N[C@@H](CC(=O)O)C(=O)N[C@@H]1C(=O)NCC(=O)N[C@@H](CCCN)C(=O)NC(CC(=O)O)C(=O)N[C@H](C)C(=O)N[C@@H](CC(=O)O)C(=O)NCC(=O)N[C@H](CO)C(=O)N[C@@H]([C@@H](C)CC(=O)O)C(=O)N[C@@H](CC(=O)c2ccccc2N)C(=O)O[C@@H]1C` (single isomer, unassigned), the MIC was determined as 16 µg/mL (≈ 9.54 µM) with Clostridioides difficile, 1 µg/mL (≈ 0.596 µM) in the test on Staphylococcus aureus, 4 µg/mL (≈ 2.39 µM) in the test on Enterococcus faecium and 4 µg/mL (≈ 2.39 µM) in the test with Enterococcus faecalis.

For `CCCCCCCCCCCCC(=O)N[C@@H](Cc1c[nH]c2ccccc12)C(=O)N[C@@H](CC(N)=O)C(=O)N[C@@H](CC(=O)O)C(=O)N[C@@H]1C(=O)NCC(=O)N[C@@H](CCCN)C(=O)NC(CC(=O)O)C(=O)N[C@H](C)C(=O)N[C@@H](CC(=O)O)C(=O)NCC(=O)N[C@H](CO)C(=O)N[C@@H]([C@@H](C)CC(=O)O)C(=O)N[C@@H](CC(=O)c2ccccc2N)C(=O)O[C@@H]1C` (single isomer, unassigned), the MIC came to 8 µg/mL (≈ 4.81 µM) with Clostridioides difficile, 0.5 µg/mL (≈ 0.301 µM) in the test with Staphylococcus aureus, 8 µg/mL (≈ 4.81 µM) against Enterococcus faecium and 8 µg/mL (≈ 4.81 µM) in the test with Enterococcus faecalis.

Regarding `CC(C)CCCCCCCCCCC(=O)N[C@@H](Cc1c[nH]c2ccccc12)C(=O)N[C@@H](CC(N)=O)C(=O)N[C@@H](CC(=O)O)C(=O)N[C@@H]1C(=O)NCC(=O)N[C@@H](CCCN)C(=O)NC(CC(=O)O)C(=O)N[C@H](C)C(=O)N[C@@H](CC(=O)O)C(=O)NCC(=O)N[C@H](CO)C(=O)N[C@@H]([C@@H](C)CC(=O)O)C(=O)N[C@@H](CC(=O)c2ccccc2N)C(=O)O[C@@H]1C` (single isomer, unassigned), the MIC worked out at 1 µg/mL (≈ 0.596 µM) against Clostridioides difficile, 0.125 µg/mL (≈ 0.0745 µM) in the test with Staphylococcus aureus, 4 µg/mL (≈ 2.39 µM) against Enterococcus faecium and 16 µg/mL (≈ 9.54 µM) in the test on Enterococcus faecalis.

`CCCCCOc1ccc(/C=C/C(=O)N[C@@H](Cc2c[nH]c3ccccc23)C(=O)N[C@@H](CC(N)=O)C(=O)N[C@@H](CC(=O)O)C(=O)N[C@@H]2C(=O)NCC(=O)N[C@@H](CCCN)C(=O)NC(CC(=O)O)C(=O)N[C@H](C)C(=O)N[C@@H](CC(=O)O)C(=O)NCC(=O)N[C@H](CO)C(=O)N[C@@H]([C@@H](C)CC(=O)O)C(=O)N[C@@H](CC(=O)c3ccccc3N)C(=O)O[C@@H]2C)cc1` (single isomer, unassigned): the MIC against Clostridioides difficile was 4 µg/mL (≈ 2.38 µM); with Staphylococcus aureus, 4 µg/mL (≈ 2.38 µM); with Enterococcus faecium, > 32 µg/mL; in the test with Enterococcus faecalis it was > 32 µg/mL.

In the case of `CC(C)CCCCCCCCCC(=O)N[C@@H](Cc1c[nH]c2ccccc12)C(=O)N[C@@H](CC(N)=O)C(=O)N[C@@H](CC(=O)O)C(=O)N[C@@H]1C(=O)NCC(=O)N[C@@H](CCCN)C(=O)NC(CC(=O)O)C(=O)N[C@H](C)C(=O)N[C@@H](CC(=O)O)C(=O)NCC(=O)N[C@H](CO)C(=O)N[C@@H]([C@@H](C)CC(=O)O)C(=O)N[C@@H](CC(=O)c2ccccc2N)C(=O)O[C@@H]1C` (single isomer, unassigned), the MIC against Clostridioides difficile is 1 µg/mL (≈ 0.601 µM); in the test with Staphylococcus aureus it was 0.25 µg/mL (≈ 0.15 µM); in the test on Enterococcus faecium, 4 µg/mL (≈ 2.41 µM); against Enterococcus faecalis it was > 32 µg/mL.

Turning to `CCCCCCc1ccc(C(=O)N[C@@H](Cc2c[nH]c3ccccc23)C(=O)N[C@@H](CC(N)=O)C(=O)N[C@@H](CC(=O)O)C(=O)N[C@@H]2C(=O)NCC(=O)N[C@@H](CCCN)C(=O)N[C@H](CC(=O)O)C(=O)N[C@H](C)C(=O)N[C@@H](CC(=O)O)C(=O)NCC(=O)N[C@H](CO)C(=O)N[C@@H]([C@@H](C)CC(=O)O)C(=O)N[C@@H](CC(=O)c3ccccc3N)C(=O)O[C@@H]2C)cc1`, the MIC against Clostridioides difficile is 4 µg/mL (≈ 2.42 µM); in the test on Staphylococcus aureus it was 1 µg/mL (≈ 0.604 µM); against Enterococcus faecium it was 32 µg/mL (≈ 19.3 µM); against Enterococcus faecalis it was > 32 µg/mL.

On to `CCCCCCCOc1ccc(-c2ccc(C(=O)N[C@@H](Cc3c[nH]c4ccccc34)C(=O)N[C@@H](CC(N)=O)C(=O)N[C@@H](CC(=O)O)C(=O)N[C@@H]3C(=O)NCC(=O)N[C@@H](CCCN)C(=O)N[C@H](CC(=O)O)C(=O)N[C@H](C)C(=O)N[C@@H](CC(=O)O)C(=O)NCC(=O)N[C@H](CO)C(=O)N[C@@H]([C@@H](C)CC(=O)O)C(=O)N[C@@H](CC(=O)c4ccccc4N)C(=O)O[C@@H]3C)cc2)cc1`, for which the MIC against Clostridioides difficile is 2 µg/mL (≈ 1.14 µM); against Staphylococcus aureus, 0.25 µg/mL (≈ 0.142 µM); in the test on Enterococcus faecium it was 1 µg/mL (≈ 0.568 µM); against Enterococcus faecalis, 4 µg/mL (≈ 2.27 µM).

For `CCCCCCCCOc1ccc(-c2ccc(C(=O)N[C@@H](Cc3c[nH]c4ccccc34)C(=O)N[C@@H](CC(N)=O)C(=O)N[C@@H](CC(=O)O)C(=O)N[C@@H]3C(=O)NCC(=O)N[C@@H](CCCN)C(=O)N[C@H](CC(=O)O)C(=O)N[C@H](C)C(=O)N[C@@H](CC(=O)O)C(=O)NCC(=O)N[C@H](CO)C(=O)N[C@@H]([C@@H](C)CC(=O)O)C(=O)N[C@@H](CC(=O)c4ccccc4N)C(=O)O[C@@H]3C)cc2)cc1`, the MIC with Clostridioides difficile was determined as 1 µg/mL (≈ 0.563 µM); against Staphylococcus aureus, 0.125 µg/mL (≈ 0.0704 µM); against Enterococcus faecium, 4 µg/mL (≈ 2.25 µM); with Enterococcus faecalis it was 16 µg/mL (≈ 9.01 µM).

`CCCCc1ccc(/C=C(\C)C(=O)N[C@@H](Cc2c[nH]c3ccccc23)C(=O)N[C@@H](CC(N)=O)C(=O)N[C@@H](CC(=O)O)C(=O)N[C@@H]2C(=O)NCC(=O)N[C@@H](CCCN)C(=O)NC(CC(=O)O)C(=O)N[C@H](C)C(=O)N[C@@H](CC(=O)O)C(=O)NCC(=O)N[C@H](CO)C(=O)N[C@@H]([C@@H](C)CC(=O)O)C(=O)N[C@@H](CC(=O)c3ccccc3N)C(=O)O[C@@H]2C)cc1` (single isomer, unassigned): the MIC in the test with Clostridioides difficile was 2 µg/mL (≈ 1.2 µM); in the test on Staphylococcus aureus, 1 µg/mL (≈ 0.6 µM); in the test with Enterococcus faecium, 32 µg/mL (≈ 19.2 µM); against Enterococcus faecalis, > 32 µg/mL.

On to `C[C@H]1NC(=O)C(CC(=O)O)NC(=O)[C@H](CCCN)NC(=O)CNC(=O)[C@@H](NC(=O)[C@H](CC(=O)O)NC(=O)[C@H](CC(N)=O)NC(=O)[C@H](Cc2c[nH]c3ccccc23)NC(=O)CCCCCc2ccccc2)[C@@H](C)OC(=O)[C@H](CC(=O)c2ccccc2N)NC(=O)[C@H]([C@@H](C)CC(=O)O)NC(=O)[C@@H](CO)NC(=O)CNC(=O)[C@H](CC(=O)O)NC1=O` (single isomer, unassigned), for which the MIC against Clostridioides difficile was 16 µg/mL (≈ 9.75 µM); against Staphylococcus aureus it was 16 µg/mL (≈ 9.75 µM); in the test with Enterococcus faecium, > 32 µg/mL; in the test on Enterococcus faecalis, > 32 µg/mL.

Turning to `CCCOc1ccc(-c2ccc(C(=O)N[C@@H](Cc3c[nH]c4ccccc34)C(=O)N[C@@H](CC(N)=O)C(=O)N[C@@H](CC(=O)O)C(=O)N[C@@H]3C(=O)NCC(=O)N[C@@H](CCCN)C(=O)N[C@H](CC(=O)O)C(=O)N[C@H](C)C(=O)N[C@@H](CC(=O)O)C(=O)NCC(=O)N[C@H](CO)C(=O)N[C@@H]([C@@H](C)CC(=O)O)C(=O)N[C@@H](CC(=O)c4ccccc4N)C(=O)O[C@@H]3C)cc2)cc1`, the MIC against Clostridioides difficile was 4 µg/mL (≈ 2.35 µM); in the test with Staphylococcus aureus, 0.5 µg/mL (≈ 0.293 µM); in the test on Enterococcus faecium, 32 µg/mL (≈ 18.8 µM); against Enterococcus faecalis, > 32 µg/mL.

Consider `C[C@H]1NC(=O)C(CC(=O)O)NC(=O)[C@H](CCCN)NC(=O)CNC(=O)[C@@H](NC(=O)[C@H](CC(=O)O)NC(=O)[C@H](CC(N)=O)NC(=O)[C@H](Cc2c[nH]c3ccccc23)NC(=O)CCCCC2CCCCC2)[C@@H](C)OC(=O)[C@H](CC(=O)c2ccccc2N)NC(=O)[C@H]([C@@H](C)CC(=O)O)NC(=O)[C@@H](CO)NC(=O)CNC(=O)[C@H](CC(=O)O)NC1=O` (single isomer, unassigned), for which the MIC is 4 µg/mL (≈ 2.45 µM) in the test with Clostridioides difficile, 1 µg/mL (≈ 0.612 µM) with Staphylococcus aureus, 32 µg/mL (≈ 19.6 µM) with Enterococcus faecium and > 32 µg/mL against Enterococcus faecalis.

Consider `C[C@H]1NC(=O)[C@@H](CC(=O)O)NC(=O)[C@H](CCCN)NC(=O)CNC(=O)[C@@H](NC(=O)[C@H](CC(=O)O)NC(=O)[C@H](CC(N)=O)NC(=O)[C@H](Cc2c[nH]c3ccccc23)NC(=O)c2ccc(-c3ccc(Cl)cc3)cc2)[C@@H](C)OC(=O)[C@H](CC(=O)c2ccccc2N)NC(=O)[C@H]([C@@H](C)CC(=O)O)NC(=O)[C@@H](CO)NC(=O)CNC(=O)[C@H](CC(=O)O)NC1=O`, for which the MIC against Clostridioides difficile was 16 µg/mL (≈ 9.52 µM); with Staphylococcus aureus, 4 µg/mL (≈ 2.38 µM); in the test on Enterococcus faecium, > 32 µg/mL; in the test with Enterococcus faecalis it was > 32 µg/mL.

As for `CCCCCCCCCCC(=O)N[C@@H](Cc1c[nH]c2ccccc12)C(=O)N[C@@H](CC(N)=O)C(=O)N[C@@H](CC(=O)O)C(=O)N[C@@H]1C(=O)NCC(=O)N[C@@H](CCCN)C(=O)NC(CC(=O)O)C(=O)N[C@H](C)C(=O)N[C@@H](CC(=O)O)C(=O)NCC(=O)N[C@H](CO)C(=O)N[C@@H]([C@@H](C)CC(=O)O)C(=O)N[C@@H](CC(=O)c2ccccc2N)C(=O)O[C@@H]1C` (single isomer, unassigned), the minimal inhibitory concentration (MIC) with Clostridioides difficile was 4 µg/mL (≈ 2.45 µM); against Staphylococcus aureus, 2 µg/mL (≈ 1.22 µM); in the test on Enterococcus faecium it was > 32 µg/mL; in the test with Enterococcus faecalis, 32 µg/mL (≈ 19.6 µM).

(Values after ChEMBL document CHEMBL3576778, “Structure-Activity Relationship Studies of a Series of Semisynthetic Lipopeptides Leading to the Discovery of Surotomycin, a Novel Cyclic Lipopeptide Being Developed for the Treatment of Clostridium difficile-Associated Diarrhea” (J Med Chem, 2015).)
